For one data set, the system named is M. smegmatis. Type of data set: cell-based, Mycobacterium smegmatis. To be noted: at 0.1–1 µg/ml (not shown).
The next data set relates to Laccase(1.10.3.2). Briefly: Laccase activity (pyrocatechin, OD410). To be noted: control 3.6. Type of data set: biochemical. On the procedure: (§1) Alcoholdehydrohenase(1.1.1.1) activity: ADH was dissolved in 50 mM phospahe buffer pH 7 at the concentration 10 µg/ml. The rate of the reaction was judged by transformation of NAD^+ (1 mM) into NADH+H^+. As the substrate ethanol was used. Activity was measured by OD340. Laccase(1.10.3.2) activity: Laccase was dissolved in the 50 mM citrate-phosphate buffer, pH4.5 at concentration 9 µg/ml. Pyrocatechin was used at concentration 11 µg/ml. Activity was measured by OD410. Trypsin(3.4.21.4) activity: The enzyme at concentration 8.0 µg/ml was dissolved in 50 mM Tris-HCl buffer pH 8.0. Concentration of the substrate (N-CBz-Gly-Gly-Arg-β-naphthylamide - Sigma-Aldrich)- 11 µg/ml. Registration of the kinetic curves was made fluorimetrically - excitation wavelength - 330 nm; emission - 420 nm. (0.02 MB DOC) Click here for additional data file.

For data set [1], the system named is M. smegmatis "non-culturable" cells. Type of data set: cell-based, Mycobacterium smegmatis. To be noted: MPN assay.
For data set [2], the target named is T1, Rpf Sm (Micrococcus luteus, UniProt O86308).
T1 construct: His-tag (inferred from the pET19b vector and the Ni2+-chelation purification); made in house; host or cells: E. coli HSM174 (DE3)
As to the kind of experiment: Muralytic activity of Rpf, 4-MUF-3-NAG hydrolysis. Type of data set: biochemical, M. luteus. On the procedure:
The truncated form of M.luteus Rpf (RpfSm) was used for the analysis. The truncated protein contained conserved Rpf domain and additional 20 amino acids of the gene product, corresponding to the following amino acid sequence:
To determine a muralytic activity of the recombinant Rpfs', 4-methylumbelliferyl-β-D-N, N′, N″-triacetylchitotrioside (4-MUF-3-NAG) (“Sigma”, Germany) was applied. […] A number of experiments were performed in the presence of NPT compounds, in concentration range of 0.5–10 µg/ml. After 3 hours of incubation at 37°C, 2 µl of 10 M NaOH was added and the samples were frozen and kept at −20°C. […] The intensity of fluorescence was detected by the RF-5301PC fluorimeter (“SHIMADZU”, Japan) using excitation wavelength of 364 nm and a read-out of 448 nm.

In a further data set the test system is Micrococcus luteus. As to the kind of experiment: microbe, parasite or virus in culture. Type of data set: cell-based. To be noted: Micrococcus luteus; lowest concentration which suppresses growth; determined during 24 hours; NI = no inhibition was observed.
The test system of data set [3] is Alcoholdehydrohenase(1.1.1.1). Briefly: Alcoholdehydrogenase activity (NAD+ to NADH, OD340). To be noted: control 1.7. Type of data set: biochemical. On the procedure: as §1
The test system of data set [4] is M. tuberculosis "non-culturable" cells. The class given is cell-based, Mycobacterium tuberculosis. The note with it: for MPN, logarithmic transformation of cell concentration (cells/ml): inhibitor 10 µg/ml.
For another data set, the system named is Trypsin(3.4.21.4). Briefly: Trypsin activity (fluorimetric). The class given is biochemical. The note with it: control 10. On the procedure: as §1
The target in data set [5] is T2, ΔDUFRpf B (Mycobacterium tuberculosis, UniProt P9WG29). Type of data set: binding, M. tuberculosis.
Data set [6] concerns the target T2, ΔDUFRpf B. On the set-up: species or system M. tuberculosis. To be noted: inhibitor 2 and 4 µg/ml, ΔDUFRpf B 60 µg/ml.
Data set [7] concerns the target T1, Rpf Sm. To be noted: inhibitor 2 and 4 µg/ml, Rpf Sm 40 µg/ml.

The text below walks through data of PMC2790607, “Finding of the Low Molecular Weight Inhibitors of Resuscitation Promoting Factor Enzymatic and Resuscitation Activity” (PLoS ONE, 2009).

Converted amounts (≈) assume the structure as drawn. Read-outs that look alike come from different tables or passages of the source.

T2 sequence (P9WG29 whole entry, looked up, stated change not applied): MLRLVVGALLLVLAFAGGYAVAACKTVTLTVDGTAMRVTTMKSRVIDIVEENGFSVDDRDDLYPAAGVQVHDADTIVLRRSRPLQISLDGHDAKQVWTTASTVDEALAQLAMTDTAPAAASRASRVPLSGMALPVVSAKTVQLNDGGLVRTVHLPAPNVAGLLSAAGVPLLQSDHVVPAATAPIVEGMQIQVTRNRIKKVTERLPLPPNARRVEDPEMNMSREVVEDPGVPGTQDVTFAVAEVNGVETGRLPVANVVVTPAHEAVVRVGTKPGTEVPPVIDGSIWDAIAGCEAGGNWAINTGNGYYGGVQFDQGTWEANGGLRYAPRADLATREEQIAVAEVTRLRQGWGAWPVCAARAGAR
T1 sequence (O86308 42-134): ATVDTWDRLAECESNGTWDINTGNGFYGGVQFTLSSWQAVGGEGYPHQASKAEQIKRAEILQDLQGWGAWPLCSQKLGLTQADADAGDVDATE

The term melting point denotes the temperature, or range, at which the solid turns liquid. For orientation: IC50 means the concentration at which inhibition is half-maximal. Regarding `N#CSc1cc(SC#N)c([N+](=O)[O-])cc1[N+](=O)[O-]` [III, 1,5-Dinitro-2,4-dithiocyanatobenzene], the melting point was in the range of 78 to 80 °C. Further, the “growth of active cells of M. smegmatis” value in the data set on M. smegmatis is recorded as “did not inhibit growth”. Besides, in the data set with Laccase(1.10.3.2) (compound 4 µg/ml), the “τ1/2, time needed to achieve a 50% level of substrate conversion, Laccase” value stood at 3.6 s. The “τ1/2, time needed to achieve a 50% level of substrate conversion, Laccase” value in the data set with Laccase(1.10.3.2) (compound 10 µg/ml) stood at 3.5 s. Further, the “concentrations active in suppressing resuscitation of M. smegmatis” value in data set [1] lay within 0.1 to 1 µg/mL. Moreover, the IC50 on Rpf Sm [2] (pH 6.0, 3 hours at 37°C, NI = no inhibition was observed, read-out: 4-MUF-3-NAG hydrolysis IC50, Rpf Sm (converted)) is 4.25 µM. In addition, the MIC in the data set with Micrococcus luteus came to 5 µg/mL (≈ 17.7 µM). In addition, the “τ1/2, time needed to achieve a 50% level of substrate conversion, Alchoholdehydrohenase” value in data set [3] (compound 4 µg/ml) was 1.7 s. In addition, in data set [3] (compound 10 µg/ml), the “τ1/2, time needed to achieve a 50% level of substrate conversion, Alchoholdehydrohenase” value is 1.7 s. Also, the “effect on resuscitation of M. tuberculosis "non-culturable" cells” value in data set [4] (10 µg/ml, MPN assay, versus untreated resuscitating cells) was “practically did not influence resuscitation”. In data set [4] (time 0 days), the “MPN, logarithmic transformation of cell concentration (cells/ml)” value (from here on “MPN, logarithmic transformation”) was determined as 3.48. For the same compound, the “MPN, logarithmic transformation” value in data set [4] (time 14 days) turned out to be 3.48. The “MPN, logarithmic transformation” value in [4] (time 19 days) was 3.86. The “MPN, logarithmic transformation” value in data set [4] (time 21 days) came to 4.63. Besides, the “MPN, logarithmic transformation” value in [4] (time 23 days) turned out to be 4.63. Moreover, the “MPN, logarithmic transformation” value in [4] (time 27 days) was determined as 5.66. In data set [4] (time 30 days), the “MPN, logarithmic transformation” value was 6.38. Also, the “MPN, logarithmic transformation” value in [4] (time 33 days) was determined as 6.38. Besides, in [4] (time 36 days), the “MPN, logarithmic transformation” value was found to be 6.38. Further, the “MPN, logarithmic transformation” value in data set [4] (time 40 days) worked out at 6.38. The “τ1/2, time needed to achieve a 50% level of substrate conversion, Trypsin” value in the data set on Trypsin(3.4.21.4) (compound 4 µg/ml) came to 10 s. Further, in the data set on Trypsin(3.4.21.4) (compound 10 µg/ml), the “τ1/2, time needed to achieve a 50% level of substrate conversion, Trypsin” value was 10 s.
In turn, `N#CSc1ccc(C(=O)c2ccccc2)cc1[N+](=O)[O-]` [VII, 4-Benzoyl-2-nitrophenyl thiocyanate] displayed a melting point of 104 to 106 °C. The “interaction with the buried tryptophanes of ΔDUFRpfB” value at ΔDUFRpf B [5] (fluorescence studies) was “interacted with at least two exposed and one buried tryptophan”. The “accessible fraction of ΔDUFRpfB tryptophanes (fa)” value on ΔDUFRpf B [5] (modified Stern-Volmer equation, excitation 280 nm, emission 340 nm) was ~65%. In the data set with M. smegmatis, the “growth of active cells of M. smegmatis” value is “did not inhibit growth”. The “τ1/2, time needed to achieve a 50% level of substrate conversion, Laccase” value in the data set with Laccase(1.10.3.2) (compound 4 µg/ml) worked out at 3.6 s. Further, in the data set on Laccase(1.10.3.2) (compound 10 µg/ml), the “τ1/2, time needed to achieve a 50% level of substrate conversion, Laccase” value turned out to be 3.5 s. Also, the “concentrations active in suppressing resuscitation of M. smegmatis” value in data set [1] lay within 0.1 to 1 µg/mL. Moreover, on ΔDUFRpf B [6], the “changes in the CD spectra of ΔDUFRpf B” value was “did not produce significant changes”. The same compound had an IC50 against Rpf Sm [2] of 6.68 µM. Further, the “type of inhibition of Rpf-Sm muralytic activity (Lineweaver-Burk plot)” value at Rpf Sm [2] (substrate 3 to 24 µM, inhibitor 0.5 to 10 µg/ml) is “non-competitive inhibition”. Also, the MIC against Micrococcus luteus was in the range of 1 to 5 µg/mL (≈ 3.52 to 17.6 µM). The “τ1/2, time needed to achieve a 50% level of substrate conversion, Alchoholdehydrohenase” value in data set [3] (compound 4 µg/ml) amounted to 1.75 s. Further, the “τ1/2, time needed to achieve a 50% level of substrate conversion, Alchoholdehydrohenase” value in [3] (compound 10 µg/ml) worked out at 1.7 s. For the same compound, the “MPN, logarithmic transformation” value in [4] (time 0 days) amounted to 3.48. Besides, the “MPN, logarithmic transformation” value in [4] (time 14 days) is reported as 3.48. Also, the “MPN, logarithmic transformation” value in data set [4] (time 19 days) turned out to be 3.48. In addition, the “MPN, logarithmic transformation” value in data set [4] (time 21 days) came to 3.86. For the same compound, in data set [4] (time 23 days), the “MPN, logarithmic transformation” value came out at 5.38. Further, in data set [4] (time 27 days), the “MPN, logarithmic transformation” value was 6.18. Besides, the “MPN, logarithmic transformation” value in data set [4] (time 30 days) is 6.18. The “MPN, logarithmic transformation” value in [4] (time 33 days) was found to be 6.18. In addition, in data set [4] (time 36 days), the “MPN, logarithmic transformation” value is 6.18. In [4] (time 40 days), the “MPN, logarithmic transformation” value amounted to 6.18. The “τ1/2, time needed to achieve a 50% level of substrate conversion, Trypsin” value in the data set with Trypsin(3.4.21.4) (compound 4 µg/ml) is given as 10 s. Besides, the “τ1/2, time needed to achieve a 50% level of substrate conversion, Trypsin” value with Trypsin(3.4.21.4) (compound 10 µg/ml) amounted to 10 s. Further, on Rpf Sm [7], the “changes in the CD spectra of Rpf Sm” value is reported as “did not produce significant changes”.
